Assay in all cases: relative viability (nuclei count vs DMSO), 5 days (fraction); higher = more cells survive
Compound in one experiment: C1CC(C1)(C(=O)O)C(=O)O.[NH2-].[NH2-].[Pt+2] [Carboplatin]
In a few lines: (§1)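 Lung cancer cell lines were seeded into 1536-well plates, kept overnight at 37 °C and pinned with five library-drug doses (not always all listed) spaced by √10. After 5 days, nuclei were Hoechst-stained, imaged at 4× and counted with MetaXpress. Viability is treated-well nuclei over vehicle-well nuclei, taken as a median across plates. Plates needed control CV below 25% and at least one doubling.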

Compound in another experiment: CC[C@H](C)N1C=C(C2=C(C=C(C=C21)C3=CN=C(C=C3)N4CCNCC4)C(=O)NCC5=C(C=C(NC5=O)C)C)C [GSK126]
The method, boiled down: as §1

Compound in a further experiment: NS(=O)(=O)OC[C@@H]1C[C@@H](n2ccc3c(N[C@H]4CCc5ccccc54)ncnc32)C[C@@H]1O [MLN4924]
In a few lines: as §1

Compound in the experiment “GSK126 + Decitabine”: CC[C@H](C)N1C=C(C2=C(C=C(C=C21)C3=CN=C(C=C3)N4CCNCC4)C(=O)NCC5=C(C=C(NC5=O)C)C)C [GSK126] + Nc1ncn([C@H]2C[C@H](O)[C@@H](CO)O2)c(=O)n1 [Decitabine] (partner 2 µM)
In a few lines:
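Five library-drug doses in √10 steps were combined with a fixed anchor-drug dose, or a single drug was given alone, by pin tool to lung cancer cell lines in 1536-well plates the day after seeding. Nuclei were stained and counted after 5 days. Relative viability is the nuclei count in treated wells over that in vehicle wells, taken as the median of duplicate plates.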

Turning to UMC-11, the relative viability in the experiment with Carboplatin (0.08 µM) came to 0.982; in the experiment with Carboplatin (0.253 µM) it was 0.996; in the experiment with Carboplatin (0.8 µM) it was 1.01; in the experiment with Carboplatin (2.53 µM) it was 0.923; with Carboplatin (8 µM), 0.767; with GSK126 (0.08 µM) it was 1.09. Also, the relative viability is 0.982 in the experiment with GSK126 (0.253 µM); 1.02 with GSK126 (0.8 µM); 1.01 with GSK126 (2.53 µM); 1.11 in the experiment with GSK126 (8 µM); 0.678 with MLN4924 (0.04 µM); 0.463 with MLN4924 (0.1265 µM). Besides, the relative viability in the experiment with MLN4924 (0.4 µM) amounted to 0.383; with MLN4924 (1.265 µM), 0.189; with MLN4924 (4 µM), 0.19; with GSK126 + Decitabine (first compound 0.08 µM), 0.695; with GSK126 + Decitabine (first compound 0.253 µM) it was 0.557; with GSK126 + Decitabine (first compound 0.8 µM) it was 0.626. Besides, the relative viability with GSK126 + Decitabine (first compound 2.53 µM) stood at 0.604; with GSK126 + Decitabine (first compound 8 µM), 0.658.

These data come from the supplement of paper PMC10307832.
